{"source": "patent US20070117152A1", "about": "“Biosensor” (FUJIFILM Corporation, priority 2005, published 2007)", "key": {"Carbonic anhydrase": {"molecular_target": "Carbonic anhydrase (Bos taurus, UniProt P00921)", "sequence (P00921 whole entry)": "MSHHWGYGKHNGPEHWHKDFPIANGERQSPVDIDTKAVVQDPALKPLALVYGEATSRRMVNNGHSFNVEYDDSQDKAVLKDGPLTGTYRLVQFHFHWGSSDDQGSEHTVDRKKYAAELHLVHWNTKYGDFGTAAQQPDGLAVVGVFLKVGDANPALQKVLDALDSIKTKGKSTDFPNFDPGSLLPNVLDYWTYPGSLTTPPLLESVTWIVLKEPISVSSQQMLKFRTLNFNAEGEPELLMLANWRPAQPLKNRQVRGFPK", "test": "Evaluation of binding ability of hydrochlorothiazide on CA-immobilized chip by surface plasmon resonance (Example 1)", "conditions": "50 μM in 1×PBS pH 7.4", "protocol": "(§1) The solution in the measurement chip was removed, and the dielectric block was covered with silicone rubber to prepare a cell having an internal volume of 15 μl. The silicone rubber cover was provided with two pores with diameters of 1 mm, and a teflon tube (i.d.: 0.5 mm; o.d.: 1 mm) was allowed to path therethrough to prepare a flow channel system. The chip provided with such flow channel system was mounted on the surface plasmon resonance measurement device of the present invention. Hereafter, liquid exchange was carried out by pouring 500 μl of liquid for 5 seconds.\nThe flow channel was filled with 70 μl of a mixed solution of 200 mM EDC (N-ethyl-N′-(3-dimethylaminopropyl)carbodiimide hydrochloride) and 50 mM NHS (N-hydroxysuccinimide), and was then allowed to stand for 10 minutes. […] The amount of the immobilized proteins was determined based on changes in signal intensities before and after protein immobilization.\n[…] Based on the signal intensity before liquid exchange, changes in the signal intensity were measured at intervals of 0.5 seconds. […] Changes in signal intensities were determined from 5 seconds before the initiation of the exchange to 2 minutes after the exchange."}, "[1]": {"molecular_target": "T1, Bovine Carbonic Anhydrase (Bos taurus, UniProt P00921)", "T1 construct": "purchased SIGMA", "T1 sequence (P00921 whole entry)": "as above", "test": "Evaluation of binding ability of hydrochlorothiazide on CA-immobilized chip by surface plasmon resonance (Example 2)", "conditions": "50 μM in 1×PBS pH 7.4", "protocol": "as §1\nThe flow channel was filled with 70 μl of a mixed solution of 200 mM EDC (N-ethyl-N′-(3-dimethylaminopropyl)carbodiimide hydrochloride) and 50 mM NHS (N-hydroxysuccinimide), and was then allowed to stand for 10 minutes. After the liquid exchange was carried out twice with 100 μl of Acetate 5.0 buffer (BIAcore), the liquid was exchanged with the acetate 5.0 solution containing Bovine Carbonic Anhydrase (hereinafter referred to as CA) (SIGMA) with the concentration shown in Table 2, and the resultant was allowed to stand for a certain period to immobilize CA. The inside of the chip was exchanged with 1 M ethanolamine solution and was then allowed to stand for 10 minutes. The interior of the chip was exchanged twice with 100 μl of Acetate 5.0 buffer to prepare CA-immobilized chip. The amount of the immobilized proteins was determined based on changes in signal intensities before and after CA immobilization. Also, the period for adding CA solution is changed, and the minimum period necessary to achieve the immobilized CA amount of 3000 RU or more was determined.\nThe flow channel system of the CA-immobilized chips, the amount of CA immobilized thereto was approximately 3,000 RU, was filled with 1×PBS buffer (pH 7.4). Based on the signal intensity before liquid exchange, changes in the signal intensity were measured at intervals of 0.5 seconds. The content of the flow channel system was exchanged with a hydrochlorothiazide solution (Sigma) (dissolved in 1×PBS (pH 7.4) to result in 50 μM therein). Changes in signal intensities were determined from 5 seconds before the initiation of the exchange to 2 minutes after the exchange."}}, "data": [{"smiles": "NS(=O)(=O)c1cc2c(cc1Cl)NCNS2(=O)=O", "note": "[Hydrochlorothiazide, hydrochlorothiazide]", "values": [{"measurement": "Hydrochlorothiazide Binding amount", "setting": "Carbonic anhydrase; Level 1: dextran (branched) chip, carbonic anhydrase immobilized 1500 RU", "result": 5, "unit": "RU"}, {"measurement": "Hydrochlorothiazide Binding amount", "setting": "Carbonic anhydrase; Level 5: pullulan (linear) chip, carbonic anhydrase immobilized 2500 RU", "result": 10, "unit": "RU"}, {"measurement": "Hydrochlorothiazide Binding amount", "setting": "[1]; Level 2: dextran 15% by weight chip, CA 200 μg/ml", "result": "−15", "unit": "RU"}, {"measurement": "Hydrochlorothiazide Binding amount", "setting": "[1]; Level 3: dextran 25% by weight chip, CA 20 μg/ml", "result": 2, "unit": "RU"}, {"measurement": "Hydrochlorothiazide Binding amount", "setting": "[1]; Level 4: dextran 25% by weight chip, CA 200 μg/ml", "result": "−30", "unit": "RU"}, {"measurement": "Hydrochlorothiazide Binding amount", "setting": "[1]; Level 5: amylose 10% by weight chip, CA 20 μg/ml", "result": 17, "unit": "RU"}, {"measurement": "Hydrochlorothiazide Binding amount", "setting": "[1]; Level 6: amylose 10% by weight chip, CA 200 μg/ml", "result": 11, "unit": "RU"}, {"measurement": "Hydrochlorothiazide Binding amount", "setting": "[1]; Level 7: amylose 15% by weight chip, CA 20 μg/ml", "result": 15, "unit": "RU"}, {"measurement": "Hydrochlorothiazide Binding amount", "setting": "[1]; Level 8: amylose 15% by weight chip, CA 200 μg/ml", "result": 10, "unit": "RU"}]}]}
